# pIC50, pKd: −log10 of the molar value.
# Assays:
# [1] = target: T1, Histone-lysine N-methyltransferase EHMT1 (Homo sapiens, UniProt Q9H9B1); assay: (§1) Inhibition of recombinant GLP catalytic SET domain (982 to 1266 residues) (unknown origin) expressed in Escherichia coli BL21 (DE3) codon plus RIL assessed as inhibition of methylation activity using biotin-labeled H3 (1 to 25 residues) as substrate and [3H]-SAM after 2 hrs by scintillation proximity assay
# T1 sequence (Q9H9B1 whole entry): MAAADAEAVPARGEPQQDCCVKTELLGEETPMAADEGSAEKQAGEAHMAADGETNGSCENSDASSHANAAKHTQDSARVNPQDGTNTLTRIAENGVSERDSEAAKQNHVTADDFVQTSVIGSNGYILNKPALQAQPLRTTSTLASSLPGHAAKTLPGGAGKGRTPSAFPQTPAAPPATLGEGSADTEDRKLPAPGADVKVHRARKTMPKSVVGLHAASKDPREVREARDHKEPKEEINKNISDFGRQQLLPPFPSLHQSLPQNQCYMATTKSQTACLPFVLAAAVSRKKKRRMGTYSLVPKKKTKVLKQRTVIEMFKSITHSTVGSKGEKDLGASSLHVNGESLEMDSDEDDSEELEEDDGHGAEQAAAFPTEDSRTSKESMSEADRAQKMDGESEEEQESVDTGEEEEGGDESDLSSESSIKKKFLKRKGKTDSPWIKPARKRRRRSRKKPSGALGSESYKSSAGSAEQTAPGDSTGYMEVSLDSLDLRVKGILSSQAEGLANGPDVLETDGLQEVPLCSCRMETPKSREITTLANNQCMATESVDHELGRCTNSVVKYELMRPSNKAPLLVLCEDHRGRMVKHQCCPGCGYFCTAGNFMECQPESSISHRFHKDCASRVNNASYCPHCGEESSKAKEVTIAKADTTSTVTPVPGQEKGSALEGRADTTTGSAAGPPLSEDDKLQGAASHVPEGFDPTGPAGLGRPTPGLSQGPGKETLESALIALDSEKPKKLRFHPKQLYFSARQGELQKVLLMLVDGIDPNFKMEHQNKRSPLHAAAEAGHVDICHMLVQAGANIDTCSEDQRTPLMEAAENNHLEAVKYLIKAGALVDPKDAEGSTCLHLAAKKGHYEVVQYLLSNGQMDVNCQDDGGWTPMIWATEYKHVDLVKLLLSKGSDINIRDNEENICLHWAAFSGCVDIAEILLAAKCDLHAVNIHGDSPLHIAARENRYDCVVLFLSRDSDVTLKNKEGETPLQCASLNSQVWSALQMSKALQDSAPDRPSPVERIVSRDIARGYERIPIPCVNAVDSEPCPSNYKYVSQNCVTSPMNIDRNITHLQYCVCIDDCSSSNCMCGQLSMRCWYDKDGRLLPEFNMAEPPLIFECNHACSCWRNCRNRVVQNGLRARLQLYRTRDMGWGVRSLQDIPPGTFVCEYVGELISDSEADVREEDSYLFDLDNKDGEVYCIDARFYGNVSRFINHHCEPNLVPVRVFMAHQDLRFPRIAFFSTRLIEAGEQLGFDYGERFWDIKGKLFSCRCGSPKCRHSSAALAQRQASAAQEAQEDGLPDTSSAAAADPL
# [2] = target: T2, Histone-lysine N-methyltransferase EHMT2 (Homo sapiens, UniProt Q96KQ7); assay: as §1, with “G9a” for “GLP”, “(913” for “(982”, “1193” for “1266”
# T2 sequence (Q96KQ7 whole entry): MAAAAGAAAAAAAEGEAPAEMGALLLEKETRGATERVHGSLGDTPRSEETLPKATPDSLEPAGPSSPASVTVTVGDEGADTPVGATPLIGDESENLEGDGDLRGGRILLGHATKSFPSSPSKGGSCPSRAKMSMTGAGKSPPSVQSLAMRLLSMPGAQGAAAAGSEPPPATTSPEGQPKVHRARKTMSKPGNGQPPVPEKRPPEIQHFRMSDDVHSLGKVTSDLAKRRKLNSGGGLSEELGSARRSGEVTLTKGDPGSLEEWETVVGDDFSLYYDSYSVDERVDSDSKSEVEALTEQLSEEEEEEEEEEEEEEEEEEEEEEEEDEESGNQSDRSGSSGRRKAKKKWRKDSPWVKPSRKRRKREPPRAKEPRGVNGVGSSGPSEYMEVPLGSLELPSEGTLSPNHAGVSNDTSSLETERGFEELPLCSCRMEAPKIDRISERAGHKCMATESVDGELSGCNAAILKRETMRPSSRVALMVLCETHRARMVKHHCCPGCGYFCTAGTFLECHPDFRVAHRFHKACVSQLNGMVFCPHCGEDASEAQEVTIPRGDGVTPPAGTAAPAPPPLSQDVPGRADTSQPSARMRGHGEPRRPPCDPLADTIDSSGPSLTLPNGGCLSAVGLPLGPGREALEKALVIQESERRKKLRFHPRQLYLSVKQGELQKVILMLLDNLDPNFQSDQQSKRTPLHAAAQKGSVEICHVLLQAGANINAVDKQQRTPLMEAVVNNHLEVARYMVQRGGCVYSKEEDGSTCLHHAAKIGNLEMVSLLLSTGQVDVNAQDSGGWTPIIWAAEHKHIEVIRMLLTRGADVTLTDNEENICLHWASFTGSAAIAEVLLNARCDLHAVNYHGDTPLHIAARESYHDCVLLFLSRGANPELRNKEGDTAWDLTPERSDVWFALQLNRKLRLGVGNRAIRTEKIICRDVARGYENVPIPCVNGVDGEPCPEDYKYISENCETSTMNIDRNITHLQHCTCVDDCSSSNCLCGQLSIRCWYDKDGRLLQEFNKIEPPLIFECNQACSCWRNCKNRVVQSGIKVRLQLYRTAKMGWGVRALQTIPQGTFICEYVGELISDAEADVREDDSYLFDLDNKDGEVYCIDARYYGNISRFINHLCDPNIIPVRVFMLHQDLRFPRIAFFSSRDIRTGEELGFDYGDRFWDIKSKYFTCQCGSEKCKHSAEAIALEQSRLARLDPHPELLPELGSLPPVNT
# [3] = target: T1, Histone-lysine N-methyltransferase EHMT1; assay: Binding affinity to recombinant GLP catalytic SET domain (982 to 1266 residues) (unknown origin) expressed in Escherichia coli BL21 (DE3) codon plus RIL in presence of SAM by isothermal titration calorimetry
# [4] = target: T2, Histone-lysine N-methyltransferase EHMT2; assay: Binding affinity to recombinant G9a catalytic SET domain (913 to 1193 residues) (unknown origin) expressed in Escherichia coli BL21 (DE3) codon plus RIL in presence of SAM by isothermal titration calorimetry
pIC50 [1],pIC50 [2],SMILES,pKd [3],pKd [4]
6.09,5.39,COc1cc2nc(N3CCOCC3)nc(NC3CCN(C)CC3)c2cc1C,,
7.92,6.50,COc1cc2nc(N3CCCC3)nc(NC3CCN(C)CC3)c2cc1OC,,
7.59,6.49,CCN1CCC(Nc2nc(N3CCOCC3)nc3cc(OC)c(OC)cc23)CC1,,
7.36,6.12,CCCCCCCNc1nc(NC2CCN(C)CC2)c2cc(OC)c(OC)cc2n1,,
7.47,6.36,COc1cc2nc(C3CCCCC3)nc(NC3CCN(C)CC3)c2cc1OC,,
< 5.30,< 5.30,CCOc1cc2c(NC3CCN(C)CC3)nc(N3CCOCC3)nc2cc1OC,,
< 5.30,< 5.30,COc1cc2c(NC3CCN(C)CC3)nc(N3CCOCC3)nc2cc1F,,
7.82,6.58,COc1cc2nc(N3CCOCC3)nc(NC3CCN(C(C)C)CC3)c2cc1OC,,
7.46,6.36,CCCCNc1nc(NC2CCN(C)CC2)c2cc(OC)c(OC)cc2n1,,
7.01,5.97,COc1cc2nc(N3CCC(F)(F)CC3)nc(NC3CCN(C)CC3)c2cc1OC,,
7.74,6.51,CCCCCCN(C)c1nc(NC2CCN(C)CC2)c2cc(OC)c(OC)cc2n1,,
< 6.00,< 5.30,CCOc1cc2nc(N3CCOCC3)nc(NC3CCN(C)CC3)c2cc1OC,,
7.96,6.65,CCCN1CCC(Nc2nc(N3CCOCC3)nc3cc(OC)c(OC)cc23)CC1,,
< 5.30,< 5.30,COc1cc2nc(N3CCOCC3)nc(NC3CCN(C)CC3)c2cc1OC(C)C,,
5.91,5.43,COc1cc2nc(N3CCOCC3)nc(NC3CCN(C)CC3)c2cc1F,,
7.54,5.94,COc1cc2c(NC3CCN(C)CC3)nc(N3CCOCC3)nc2cc1C,,
7.92,6.50,COc1cc2nc(N3CCOCC3)nc(NC3CCN(C4CC4)CC3)c2cc1OC,,
7.46,6.39,CCCCN(C)c1nc(NC2CCN(C)CC2)c2cc(OC)c(OC)cc2n1,,
6.47,5.72,COc1cc2nc(C3CCOCC3)nc(NC3CCN(C)CC3)c2cc1OC,,
7.80,6.72,COc1cc2nc(N3CCCCCC3)nc(NC3CCN(C)CC3)c2cc1OC,,
7.55,6.51,CCCCCN(C)c1nc(NC2CCN(C)CC2)c2cc(OC)c(OC)cc2n1,,
< 5.30,< 5.30,COc1cc2c(NC3CCN(C)CC3)nc(N3CCOCC3)nc2cc1OC(C)C,,
7.20,6.47,CCCCCNc1nc(NC2CCN(C)CC2)c2cc(OC)c(OC)cc2n1,,
7.92,7.51,COc1cc2nc(N3CCCCC3)nc(NC3CCN(C)CC3)c2cc1OC,,
7.89,6.36,COc1cc2nc(N3CCOCC3)nc(NC3CCN(C)CC3)c2cc1OC,7.40,6.35
8.40,,COc1cc2nc(N3CCCN(C)CC3)nc(NC3CCN(C)CC3)c2cc1OC,,

SMILES,pIC50 [1],pIC50 [2],pKd [3],pKd [4]
CCCCCCNc1nc(NC2CCN(C)CC2)c2cc(OC)c(OC)cc2n1,8.15,6.00,7.34,6.21

# — ChEMBL document CHEMBL4004823, “Discovery of Potent and Selective Inhibitors for G9a-Like Protein (GLP) Lysine Methyltransferase” (J Med Chem, 2017)
